Molecules are shown by their SMILES. pKi: −log10 of the molar value.

The target in series [1] is T1, MMP-1 (human interstitial collagenase) (Homo sapiens, UniProt P03956).
T1 construct: truncated recombinant enzyme encompassing residues 101-269
T1 sequence (P03956 101-269): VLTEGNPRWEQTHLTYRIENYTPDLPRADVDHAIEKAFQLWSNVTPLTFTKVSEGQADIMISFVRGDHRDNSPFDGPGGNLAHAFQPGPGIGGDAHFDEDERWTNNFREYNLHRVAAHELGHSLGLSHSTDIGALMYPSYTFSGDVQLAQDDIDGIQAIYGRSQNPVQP
The experiment in a line: Biochemical Assay (Protocol A): inhibition of human collagenase, fluorimetric peptide substrate. The settings on record: MMP-1, pH 7.4, 37° C. From the text:
As mentioned above, although low molecular weight MMP inhibitors, including hydroxamates of general formula (A), are already known, there is a strong need for better and diversified molecules for their use in medicine, that is in particular in the control or prevention of degenerative joint diseases such as rheumatoid arthritis and osteoarthritis, or in the management of multiple sclerosis, or in the treatment of invasive tumors. […] For example, the following protocol was used to assess the biochemical activity of compounds of formula (I) against MMP-1, MMP-2, and MMP-3 (respectively, human interstitial collagenase, gelatinase A, and stromelysin-1).
Human gelatinase-A (MMP-2) was obtained as pro-enzyme (72 kDa) and was activated with 1 mM 4-aminophenylmercuric acetate for 30 min at 37° C. immediately prior to use. Human stromelysin-1 (MMP-3) was obtained as a recombinant pro-enzyme isolated either from E. coli or from baculovirus infected Sf9 insect cells and activated either by heat (1 h, 55° C.) or by 5 mg/l trypsin (30 min, 37° C.) before addition of soybean trypsin inhibitor, finally removed by centrifugation.
All enzyme assays to determine values of the enzyme-inhibitor dissociation constants were performed using the peptide substrate (7-methoxycoumarin-4-yl)Acetyl-Pro-Leu-Gly-Leu-(3-[2,4-dinitrophenyl]-L-2,3-diaminopropionyl)-Ala-Arg-NH2 (Mca-Pro-Leu-Gly-Leu-Dpa-Ala-Arg--NH2) (C. G. Knight et al., FEBS Lett. 296:263-266, 1992). The enzymes cleave at the Gly-Leu bond removing the internally quenching Dpa group. The release of the highly fluorescent peptide Mca-Pro-Leu was followed fluorimetrically setting the excitation wavelength at 326 nm (bandwidth 5 nm) and the emission at 392 nm (bandwidth 20 nm).
Continuous fluorescence assay was carried out using a Perkin Elmer LS-50 Fluorescence Spectrophotometer fitted with a thermostatted four position stirring cell changer. Inhibitors were dissolved in the assay buffer ([…] Tris/HCl pH 7.4 containing 0.15 M NaCl, 10 mM CaCl2, 0.01 mM ZnCl2 and 0.05% Brij 35) thermostatted at 37° C. The reaction was started by the addition of substrate ([…]), followed by the addition of the enzyme (e.g. 1.0 nM collagenase, 0.04 nM gelatinase, or 3.0 nM stromelysin) and the increase in fluorescence was monitored over 30 min. The run was repeated at different concentrations of inhibitors in the range 0.1-10000 nM and data at inhibitor concentration in the region if their enzyme-inhibitor dissociation constants were used for calculation.
Substrate consumption was within 5% of the initial concentration and data outside this range were discarded. The Michaelis constants (Km) for the enzyme-substrate complexes is […] or greater (C. G. Knight et al., reference above), so that the factor (1+S/Km) can be approximated to unity without appreciable error.

A short description of series [2]: Pharmacokinetic Assay (Protocol C): plasma levels after i.v. and oral administration to rats. As to conditions: 15 mg/kg. Type of series: in vivo, rat (male Sprague-Dawley). As to the method: Male rats (Sprague-Dawley; body weight about 250-300 g) were acclimatized for about one week before the start of the study. […] Before treatment, rats were overnight fasted. For each compound to be assessed, three rats were treated intravenously (injection in the tail vein as a bolus) with a single dose of 15 mg/kg (as free base or free acid if needed) body weight. Other three rats were treated orally (single bolus dose by gastric gavage) with 15 mg/kg of the same compound. In same cases, according to the detection limit of each particular compound, and its availability in stock, these standard doses were modified as needed.
Blood samples were collected into syringes especially prepared for use with the cannulated animals via the SCV cannula. Under standard conditions, blood samples (0.2 mL) were transferred into heparinized tubes at the following times: 0 (pre-dose), 2, 4, 8, 16, 30, 45, 60, 90 min, 2, 4, 6, 8 and 24 h after iv administration; 0 (pre-dose), 5, 10, 30, 45, 60, 90 min, 2, 4, 6, 8, and 24 h after oral administration. Plasma was obtained immediately by centrifugation (about 10,000 rpm for 3 min) and stored at -80° C. till analysis. Plasma samples were assayed for parent drug concentrations using an appropriate analytical method. Under standard conditions, liquid chromatography--tandem mass spectrometry (LC/MS-MS) was used.
Non-compartmental pharmacokinetic calculations were performed with the aid of Pharm-NCA package (SIMED, France). Maximum plasma concentration, Cmax, and the corresponding time, tmax, were read as the coordinates of the highest raw-data point for individual plasma profiles. Terminal phase was evaluated by graphic judgement by eye; terminal rate constant, was calculated as the slope of the terminal linear portion of natural log-transformed plasma concentrations vs. time curve, obtained using linear regression. Terminal half-life, t1/2,z, was calculated as ln(2)/lz. The area under the plasma concentration-time curve was estimated by the linear trapezoidal rule up to the last measured concentration (AUC(0-tz)) and extrapolated to infinity assuming monoexponential decay, using the formula AUC=AUC(0-tz)+C(tz)/lz, where C(tz) is the measured concentration of the last point with detectable concentration. Following iv dosing, systemic clearance was obtained using the formula Cl=Dose/AUC. According to Protocol C, the pharmacokinetic in rats of some representative compounds within the present invention was evaluated. Significant pharmacokinetic data obtained in rats at a 15 mg/kg dose were as follows: […]

Compound `CNC(=O)[C@@H](NC(=O)[C@H](CC(C)C)[C@](O)(CO)C(=O)NO)C(C)(C)C` [Example 3] had a pKi in series [1] of 8.64. Further, the “plasma clearance compared with literature hydroxamic acid MMP inhibitors” value in series [2] (to our best knowledge) is given as “inferior to that reported for any hydroxamic acid MMP inhibitor disclosed in the literature”. In series [2] (iv), this compound came in with an AUC iv of 1.53 mg·min/mL. Also, the half-life in series [2] (rat, plasma, terminal half-life, read-out: t1/2,z (converted)) is 5.4 h. For the same compound, the clearance in series [2] (rat, plasma, iv) was found to be 9.89 mL/min/kg. Besides, the AUC in series [2] (rat, plasma, oral) is 1100 ng·h/mL.

By pKi is commonly meant −log10 of the Ki, conventionally taken in molar units. By AUC is commonly meant the area under the concentration-time curve, a measure of exposure. A high value points to more exposure.
